Assay results as given in patent US12533386B2, “Preparation of black tea extract with high theaflavin content and use thereof” (Huanggang Normal University, priority 2022, dated 2026).

Test system: atherosclerosis in ApoE−/− (ApoE-KO) mice
Experiment: Atherosclerosis mouse model (ApoE-KO, high fat diet), histological analyses
Format: in vivo
Settings: 2.5 mg and 7.5 mg theaflavin treatment, especially high dose of 7.5 mg; versus high fat diet group
Method: Twenty four model male ApoE−/− (ApoE-KO) mice were fed a high fat diet for 6 weeks to develop established atherosclerosis. At 8 weeks of age, they were divided into 4 treatment groups: control, high fat diet, 2.5 mg theaflavin treatment, and 7.5 mg theaflavin treatment. 8 weeks after commencement of the study, ApoE-KO mice were anaesthetized. All animal experiments were performed in accordance with the Guidelines for the Care and Use of Laboratory Animals, Ministry of Science and Technology, China. This study was approved by the Animal Care and Scientific Committee of Huanggang Normal University, Hubei, China.

Which “tissue damages in histology (aorta, adipose)” value does the source give for `O=c1c(O)cc([C@H]2Oc3cc(O)cc(O)c3C[C@H]2O)cc2c([C@H]3Oc4cc(O)cc(O)c4C[C@H]3O)cc(O)c(O)c12` [theaflavin] here?
The value was “could reverse some of the tissue damages”.
